Assay results: BindingDB's records for doi:10.1074/jbc.M112.399303 (Universidade Federal do Rio de Janeiro, 2014)

Tests used:
Test in all cases: Diffusion Ordered Spectroscopy (DOSY)
Settings in all cases: 11 °C
[1] = molecular target: T1, Trans-sialidase [3-643,Y342H] (Trypanosoma cruzi, UniProt Q9BHJ5, Y342H)
T1 construct: 3-643
Protocol: (§1) Solutions of TS, TSY342H, and TSD247A in 20 mM Tris-HCl were exchanged with deuterated PBS using four cycles of concentration with Amicon Ultra (50,000 nominal molecular weight limit; Millipore) and diluted in deuterated PBS. One hundred microliters of 0.1 mM protein solution (TcTSs or BSA) was titrated with the sialoside (0.2, 0.4, 0.6, 0.8, 1.0, 1.2, 1.6, and 2.0 mM) or lacto-N-neotetraose (0.1, 0.2, 0.3, 0.4, 0.5, 0.6, 0.7, and 0.9mM) as a negative control. The solution containing 0.1 mM protein plus sialoside was further titrated with Me-Lac (0.1, 0.2, 0.3, 0.4, 0.5, 0.6, 0.7, and 0.9 mM) in Shigemi tubes. NMR spectra were obtained at a probe temperature of 293 K on a Bruker DMX 600-MHz spectrometer equipped with a 5-mm self-shielded gradient triple resonance probe. All DOSY experiments were performed with a stimulated echo using bipolar gradient pulses for diffusion, one spoil gradient, and the 3-9-19 pulse sequence with gradients for water suppression according to the Bruker pulse program stebpgp1s19. The gradient duration was set to δ = 10 ms (protein-only experiments) and 20ms (protein⋅carbohydrate complexes experiments), and the diffusion time was set to Δ = 40 ms. Gradient strength was linearly varied in 16 steps from 0.6 to 6.7 G/cm. For each of the 16 gradient amplitudes, eight transients of 192 complex data points were acquired to a 10.0-ppm spectral width. The pulse repetition delay between each scan was 3 s.

Trans-sialidase [3-643] = molecular target: T2, Trans-sialidase [3-643] (Trypanosoma cruzi, UniProt Q9BHJ5)
T2 construct: 3-643
T2 sequence (Q9BHJ5 whole entry): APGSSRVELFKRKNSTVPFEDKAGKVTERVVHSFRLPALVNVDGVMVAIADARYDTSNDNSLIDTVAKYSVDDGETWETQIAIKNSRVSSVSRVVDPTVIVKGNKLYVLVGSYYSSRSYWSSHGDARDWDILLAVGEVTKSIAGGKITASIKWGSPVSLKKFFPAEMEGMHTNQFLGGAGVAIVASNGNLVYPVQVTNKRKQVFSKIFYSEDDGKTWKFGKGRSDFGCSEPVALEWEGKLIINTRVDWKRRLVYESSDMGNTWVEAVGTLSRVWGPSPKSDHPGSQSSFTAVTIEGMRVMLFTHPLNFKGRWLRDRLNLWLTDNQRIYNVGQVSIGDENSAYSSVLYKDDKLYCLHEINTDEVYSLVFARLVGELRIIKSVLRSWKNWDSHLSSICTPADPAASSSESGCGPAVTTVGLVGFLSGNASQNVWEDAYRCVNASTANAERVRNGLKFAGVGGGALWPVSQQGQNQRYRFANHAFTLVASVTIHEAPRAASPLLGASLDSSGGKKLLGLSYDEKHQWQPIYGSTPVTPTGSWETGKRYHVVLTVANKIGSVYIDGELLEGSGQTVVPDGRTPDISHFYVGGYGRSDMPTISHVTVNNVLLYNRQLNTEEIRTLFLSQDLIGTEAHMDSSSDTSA
Protocol: as §1

[2] = molecular target: T3, Trans-sialidase [3-643,D247A] (Trypanosoma cruzi, UniProt Q9BHJ5, D247A)
T3 construct: 3-643
Protocol: as §1

T1 sequence (Q9BHJ5 3-643 Y344H): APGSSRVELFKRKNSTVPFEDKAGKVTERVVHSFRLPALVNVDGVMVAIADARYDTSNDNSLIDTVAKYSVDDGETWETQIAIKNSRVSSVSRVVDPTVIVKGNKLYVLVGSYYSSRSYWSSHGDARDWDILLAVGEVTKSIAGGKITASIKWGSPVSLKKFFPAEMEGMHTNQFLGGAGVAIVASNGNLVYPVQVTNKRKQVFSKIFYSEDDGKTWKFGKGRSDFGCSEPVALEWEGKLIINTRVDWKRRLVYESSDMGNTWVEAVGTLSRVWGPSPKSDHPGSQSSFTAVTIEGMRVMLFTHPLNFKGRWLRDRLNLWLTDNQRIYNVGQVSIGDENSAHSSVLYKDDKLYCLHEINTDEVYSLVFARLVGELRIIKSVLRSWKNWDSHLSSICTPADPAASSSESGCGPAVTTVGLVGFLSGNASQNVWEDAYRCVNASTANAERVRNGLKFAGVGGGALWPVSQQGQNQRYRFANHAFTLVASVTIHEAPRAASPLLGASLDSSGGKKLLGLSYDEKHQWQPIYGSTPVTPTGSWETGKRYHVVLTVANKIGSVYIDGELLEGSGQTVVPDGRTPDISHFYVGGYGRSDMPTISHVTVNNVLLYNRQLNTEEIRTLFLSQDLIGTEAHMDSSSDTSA
T3 sequence (Q9BHJ5 3-643 D249A): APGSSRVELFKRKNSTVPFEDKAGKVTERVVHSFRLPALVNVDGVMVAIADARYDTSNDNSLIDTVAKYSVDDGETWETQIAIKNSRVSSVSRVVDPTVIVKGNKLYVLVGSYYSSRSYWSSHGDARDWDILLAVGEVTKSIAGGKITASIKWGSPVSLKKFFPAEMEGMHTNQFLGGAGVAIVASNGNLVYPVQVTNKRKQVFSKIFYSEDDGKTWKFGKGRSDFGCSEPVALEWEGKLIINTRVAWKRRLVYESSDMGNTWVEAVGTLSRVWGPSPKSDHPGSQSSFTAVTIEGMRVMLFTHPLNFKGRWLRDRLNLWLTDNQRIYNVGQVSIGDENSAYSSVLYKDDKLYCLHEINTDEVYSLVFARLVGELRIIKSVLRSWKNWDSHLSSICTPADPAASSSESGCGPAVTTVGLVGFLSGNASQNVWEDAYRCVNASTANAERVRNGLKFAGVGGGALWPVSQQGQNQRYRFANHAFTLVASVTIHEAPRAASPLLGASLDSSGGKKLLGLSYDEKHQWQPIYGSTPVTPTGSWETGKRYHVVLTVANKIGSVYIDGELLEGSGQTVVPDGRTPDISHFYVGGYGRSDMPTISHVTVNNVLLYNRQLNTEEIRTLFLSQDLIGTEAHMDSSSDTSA

SMILES | Kd [1] | Kd (Trans-sialidase [3-643]) | Kd [2]
CO[C@@H]1O[C@H](CO)[C@@H](O[C@@H]2O[C@H](CO)[C@H](O)[C@H](O)[C@H]2O)[C@H](O)[C@H]1O [CHEBI:610092] | 52 µM | 15 µM | –
COC1OC(CO)C(O)C(SC2(C(=O)O)CC(O)C(NC(C)=O)C([C@H](O)[C@H](O)CO)O2)C1O (stereo not given in full) [NeuSGal] | – | 456 µM | –
CC(=O)NC1C(O)CC(OC2C(O)C(CO)OC(OC3C(CO)OC(O)C(O)C3O)C2O)(C(=O)O)OC1[C@H](O)[C@H](O)CO (stereo partly drawn) [α2,3'-sialyllactose] | 234 µM | – | 107 µM
